Consider 25 compounds from patent publication EP4556004A1 (priority 2023, dated 2025).

The term IC50 denotes the midpoint of a concentration-inhibition curve. Higher therefore signals a need for much substance.

Experiment [1] has as its system HCoV-229E. Briefly: microbe, parasite or virus in culture. It counts as cell-based, Human coronavirus 229E.
For a further experiment, the system named is SARS-CoV-2. Briefly: SARS-CoV-2 antiviral assay in human primary epithelial nasal cells (Mucilair). It counts as cell-based, severe acute respiratory syndrome coronavirus-2.
Experiment [2] concerns HCoV-229E. The format is cell-based, Human coronavirus 229E.

Read-outs that look alike come from different tables or passages of the source.

Compound `CC(=O)C1=C(O)C(CC=C(C)C)=C(O)C(CC=C(C)C)(CC=C(C)C)C1=O` [AH16-F2, 2-acetyl-3,5-dihydroxy-4,6,6-tris(3-methylbut-2-en-1-yl)cyclohexa-2,4-dien-1-one] gave an IC50 in the experiment with HCoV-229E [1] (Human coronavirus 229E, Huh-7) below 12 µM.

Ad-lupulone: the IC50 in the experiment with HCoV-229E [1] was below 12 µM.

Regarding `CC(C)=CCC1(CC=C(C)C)C(=O)C(C(=O)C(C)C)=C(O)C(C(=O)C(C)C)=C1O` [AH66-F1, 1,1'-(2,4-dihydroxy-5,5-bis(3-methylbut-2-en-1-yl)-6-oxocyclohexa-1,3-diene-1,3-diyl)bis(2-methylpropan-1-one)], the IC50 in the experiment with HCoV-229E [1] (Human coronavirus 229E, Huh-7) is below 12 µM.

Turning to `CC(=O)c1c(O)c(CC=C(C)C)c(O)c(CC=C(C)C)c1O` [AH52-F1, 1-(2,4,6-trihydroxy-3,5-bis-(3-methylbut-2-en-1-yl)phenyl)ethan-1-one], in the experiment on HCoV-229E [1] (Human coronavirus 229E, Huh-7), the IC50 is above 24 µM.

As to `CC(C)=CCC1C(=O)C(C(=O)CC(C)C)=C(O)C=C1O` (stereo not drawn) [AH55-F3, 3,5-dihydroxy-6-(3-methylbut-2-en-1-yl)-2-(3-methylbutanoyl)cyclohexa-2,4-dien-1-one], the IC50 in the experiment on HCoV-229E [1] (Human coronavirus 229E, Huh-7) was below 24 µM.

On to `CC(C)=CCC1=C(O)[C@](O)(CC=C(C)C)C(=O)C(C(=O)C(C)C)=C1O` [Co-humulone, reference compound], for which the IC50 in the experiment with HCoV-229E [1] (Human coronavirus 229E, Huh-7) is above 24 µM.

As to `CC(C)=CCC1=C(O)C(CC=C(C)C)(CC=C(C)C)C(=O)C(C(=O)CC(C)C)=C1O` [AH6-F2, 3,5-dihydroxy-4,6,6-tris(3-methylbut-2-en-1-yl)-2-(3-methylbutanoyl)cyclohexa-2,4-dien-1-one], in the experiment with HCoV-229E [1] (Human coronavirus 229E, Huh-7), the half-maximal inhibitory concentration (IC50) is below 3 µM.

In the experiment on HCoV-229E [1] (Human coronavirus 229E, Huh-7), `CC(C)=CCC1=C(O)C(CC=C(C)C)(CC=C(C)C)C(=O)C(C(=O)C=Cc2ccccc2)=C1O` [AH41-F1, 2-cinnamoyl-3,5-dihydroxy-4,6,6-tris(3-methylbut-2-en-1-yl)cyclohexa-2,4-dien-1-one] gave a concentration for half-maximal inhibition (IC50) below 12 µM.

For the compound `CCC(C)C(=O)C1=C(O)C(CC=C(C)C)=C(O)C(CC=C(C)C)(CC=C(C)C)C1=O` (stereo not drawn) [AH8-F2, 3,5-dihydroxy-4,6,6-tris(3-methylbut-2-en-1-yl)-2-(2-methylbutanoyl)cyclohexa-2,4-dien-1-one], the IC50 in the experiment with HCoV-229E [1] (Human coronavirus 229E, Huh-7) is below 12 µM.

In the experiment with HCoV-229E [1] (Human coronavirus 229E, Huh-7), `CCC(=O)C1=C(O)C(CC=C(C)C)=C(O)C(CC=C(C)C)(CC=C(C)C)C1=O` [AH17-F2, 3,5-dihydroxy-4,6,6-tris(3-methylbut-2-en-1-yl)-2-propionylcyclohexa-2,4-dien-1-one] displayed an IC50 above 24 µM.

Turning to `CC(C)=CCC1=C(O)C(C(=O)C(C)C)=C(O)C(CC=C(C)C)(CC=C(C)C)C1=O` [Colupulone, Co-lupulone], in the experiment on HCoV-229E [1], the IC50 is below 3 µM. In addition, the “reduction of SARS-CoV-2 infection” value in the experiment with SARS-CoV-2 is “able to reduce”. Moreover, the “reduction of HCoV-229E infection” value with HCoV-229E [2] is “able to reduce”.

With `CC(C)=CCC1=C(O)C(C(=O)CC(C)C)=C(O)C(CC=C(C)C)(CC=C(C)C)C1=O` [Lupulone], the IC50 in the experiment on HCoV-229E [1] (Human coronavirus 229E, Huh-7) was below 3 µM.

For the compound `CCC(C)C(=O)c1c(O)cc(O)c(CC=C(C)C)c1O` (stereo not drawn) [AH57-F3, 2-methyl-1-(2,4,6-trihydroxy-3-(3-methylbut-2-en-1-yl)phenyl)butan-1-one], the 50% inhibitory concentration (IC50) with HCoV-229E [1] (Human coronavirus 229E, Huh-7) is below 24 µM.

For `CC(C)=CCc1c(O)cc(O)c(C(=O)C(C)C)c1O` [AH62-F2, 2-methyl-1-(2,4,6-trihydroxy-3-(3-methylbut-2-en-1-yl)phenyl)propan-1-one], in the experiment with HCoV-229E [1], the IC50 is below 3 µM.

`CC(C)=CCC1=C(O)C(CC=C(C)C)(CC=C(C)C)C(=O)C(C(=O)/C=C/c2ccc(C(F)(F)F)cc2)=C1O` [AH44-F2, (E)-3,5-dihydroxy-4,6,6-tris(3-methylbut-2-en-1-yl)-2-(3-(4-(trifluoromethyl)phenyl)acryloyl)cyclohexa-2,4-dien-1-one] showed an IC50 in the experiment on HCoV-229E [1] (Human coronavirus 229E, Huh-7) below 12 µM.

`CC(C)=CCc1c(O)cc(O)c(C(=O)C(C)C)c1O` [AH56-F3, 2-methyl-1-(2,4,6-trihydroxy-3-(3-methylbut-2-en-1-yl)phenyl)propan-1-one] displayed an IC50 with HCoV-229E [1] above 24 µM.

Consider `CC(C)=CCC1(CC=C(C)C)C(=O)CC(O)=C(C(=O)CC(C)C)C1=O` [LB68-F3, 5-hydroxy-2,2-bis(3-methylbut-2-en-1-yl)-4-(3-methylbutanoyl)cyclohex-4-ene-1,3-dione], for which the IC50 in the experiment with HCoV-229E [1] (Human coronavirus 229E, Huh-7) is below 12 µM.

Compound `CCCC(=O)C1=C(O)C(CC=C(C)C)=C(O)C(CC=C(C)C)(CC=C(C)C)C1=O` [AH10-F2, 2-butyryl-3,5-dihydroxy-4,6,6-tris(3-methylbut-2-en-1-yl)cyclohexa-2,4-dien-1-one] gave an IC50 in the experiment on HCoV-229E [1] (Human coronavirus 229E, Huh-7) below 3 µM.

In the experiment on HCoV-229E [1] (Human coronavirus 229E, Huh-7), `CCC(C)CC(=O)C1=C(O)C(CC=C(C)C)=C(O)C(CC=C(C)C)(CC=C(C)C)C1=O` (stereo not drawn) [AH40-F1, 3,5-dihydroxy-4,6,6-tris(3-methylbut-2-en-1-yl)-2-(3-methylpentanoyl)cyclohexa-2,4-dien-1-one] showed an IC50 below 12 µM.

In the experiment on HCoV-229E [1] (Human coronavirus 229E, Huh-7), `CC(C)=CCC1=C(O)C(CC=C(C)C)(CC=C(C)C)C(=O)C(C(=O)CCCCCNc2ccc([N+](=O)[O-])c3nonc23)=C1O` [AH77-F1, 3,5-dihydroxy-4,6,6-tris(3-methylbut-2-en-1-yl)-2-(6-((7-nitrobenzo[c][1,2,5]oxadiazol-4-yl)amino)hexanoyl)cyclohexa-2,4-dien-1-one] returned an IC50 below 12 µM.

In turn, `CCCCC(=O)C1=C(O)C(CC=C(C)C)=C(O)C(CC=C(C)C)(CC=C(C)C)C1=O` [AH18-F4, 3,5-dihydroxy-4,6,6-tris(3-methylbut-2-en-1-yl)-2-pentanoylcyclohexa-2,4-dien-1-one] showed an IC50 with HCoV-229E [1] (Human coronavirus 229E, Huh-7) below 12 µM.

In the case of `CC(C)=CCC1=C(O)[C@](O)(CC=C(C)C)C(=O)C(C(=O)CC(C)C)=C1O` [Humulone, reference compound], in the experiment with HCoV-229E [1] (Human coronavirus 229E, Huh-7), the IC50 was above 24 µM.

In the experiment with HCoV-229E [1] (Human coronavirus 229E, Huh-7), `CC(C)=CCC1=C(O)C(CC=C(C)C)(CC=C(C)C)C(=O)C(C(=O)C(C)C)=C1O` [LB.70-F2, 3,5-dihydroxy-4,6,6-tris(3-methylbut-2-en-1-yl)-2-(2-methylpropanoyl)cyclo-hexa-2,4-dien-1-one] yielded an IC50 below 3 µM.

As for `CC(C)=CCC1=C(O)C(CC=C(C)C)(CC=C(C)C)C(=O)C(C(=O)CCC(C)C)=C1O` [AH39-F1, 3,5-dihydroxy-4,6,6-tris(3-methylbut-2-en-1-yl)-2-(4-methylpentanoyl)cyclohexa-2,4-dien-1-one], in the experiment with HCoV-229E [1] (Human coronavirus 229E, Huh-7), the IC50 is below 12 µM.

On to `CC(C)=CCC1=C(O)C(CC=C(C)C)(CC=C(C)C)C(=O)C(C(=O)c2ccccc2)=C1O` [AH47-F3, 2-benzoyl-3,5-dihydroxy-4,6,6-tris(3-methylbut-2-en-1-yl)cyclohexa-2,4-dien-1-one], for which the IC50 in the experiment with HCoV-229E [1] (Human coronavirus 229E, Huh-7) was below 12 µM.
